Where a SMILES comes first, the peptide text is derived from it. The star is where a group is joined. βNA = c1ccc2cc(N*)ccc2c1
Legend:
Type in all cases: cell-based, Escherichia coli
[1] = tested on: susceptible E. coli NCTC 10418; assay: Novobiocin potentiation assay (MIC of novobiocin with fixed concentration of peptide or PAβN); parameters: key to MIC of Novobiocin, E. coli NCTC 10418, +128 μg/mL added peptide / MIC of Novobiocin, E. coli NCTC 10418, +32 μg/mL added peptide: Non potentiating (NP) indicated no reduction in the MIC of novobiocin was observed; settings: for MIC of Novobiocin, E. coli NCTC 10418, +128 μg/mL added peptide / MIC of Novobiocin, E. coli NCTC 10418, +32 μg/mL added peptide: Iso-Sensitest Broth, 5 × 10^5 CFU/mL, visual read-out; for MIC of Novobiocin, E. coli NCTC 10418, +128 μg/mL added peptide: fixed 128 μg/mL peptide; for MIC of Novobiocin, E. coli NCTC 10418, +32 μg/mL added peptide: fixed 32 μg/mL peptide; for potentiation of the MIC of novobiocin, result in words: added peptide, wording covers susceptible and multi-drug resistant strain
Experimental: (§1) The peptides were also tested in combination with antibiotics novobiocin and norfloxacin. Novobiocin has low efficacy against Gram-negative bacteria due to its hydrophobicity, giving limited cell permeability.
(§2) The antibacterial activity of the peptides and peptide/antibiotic combinations were tested by the broth microdilution assay according to [24]. Escherichia coli NCTC 10,418 and Staphylococcus aureus NCTC 12,981 were obtained from the National Collection of Type Cultures, UK. Escherichia coli G69 was a clinical isolate as previously described.
(§3) Briefly, all bacterial strains were cultured on nutrient agar (Sigma-Aldrich, Gillingham, UK) plates and incubated for 24 h at 37 °C prior to MIC determination. In addition, known quantities of each test sample were dissolved in DMSO and then diluted in ISB (Iso- Sensitest Broth, Oxoid, Basingstoke, UK) to give a range concentration of 128–0 μg/mL, unless stated differently. […] Finally, the overnight cultures of each of the tested strains were suspended to an inoculum density of approximately 1.0 × 10^8 CFU/mL in phosphate buffered saline (PBS), consisting of 137 mM NaCl, 3 mM KCl, 8 mM Na2HPO4, and […] (Oxoid, Basingstoke, UK). The cell suspensions were standardized by adjusting the optical density to 0.1 at 600 nm (Thermo Scientific UV-Vis Spectrophotometer, Abingdon, UK) before being diluted 1:100 in ISB prior to inoculation
(§4) The assays were performed by microdilution using 96-well microtiter plates with a final inoculum of 5 × 10^5 CFU/mL and each sample was tested in duplicate in at least two independent experiments in order to confirm the reliability of the data. Results were determined by visual inspection of the wells and the presence of an evident opaque medium or white pellets were indicative of bacterial growth. The MIC values were recorded as the lowest concentration at which no bacterial growth was detected.

[2] = tested on: susceptible E. coli 10418; assay: Norfloxacin potentiation assay (MIC of norfloxacin with fixed concentration of peptide or PAβN); settings: broth microdilution, duplicate; for MIC of norfloxacin, E. coli 10418, +128 μg/mL of peptide: fixed 128 μg/mL peptide
Experimental: (§5) In order to gather more evidence on the potential mechanisms of action, the effects of the peptides in combination with the quinolone antibiotic norfloxacin were determined. Norfloxacin is active against Gram-negative bacteria, generally achieving entry via porin channels, but is also able to enter the bacterial cell via the membrane in porin-deficient mutants. Therefore, any membrane permeability mechanism would not be expected to have a significant effect on improving the activity of norfloxacin in porin-competent strains. This is indeed what was observed (Table S5), which added weight to our hypothesis that our very short peptides may be acting as membrane permeability enhancers for novobiocin.
as §2
as §3, with “inoculation […]” for “inoculation”
as §4, with “detected. […]” for “detected.”
(§6) potentiating novobiocin. Assays were performed at fixed concentration of 128 μg/mL against susceptible E. coli 10418 and multidrug resistant clinical isolate E. coli G69. Potentiation assay for norfloxacin was also performed in presence of 64 μg/mL of RND efflux pump inhibitor PAβN. All tests were repeated in […]
(§7) Compound Sequence MIC of norfloxacin (μg/mL) […]
(§8) inhibitor PaβN but no potentiation was observed, so the assay was not repeated at lower concentrations.

[3] = tested on: multidrug resistant clinical isolate E. coli G69; assay: as above; settings: broth microdilution, duplicate; for MIC of norfloxacin, E. coli G69, +128 μg/mL of peptide: fixed 128 μg/mL peptide
Experimental: as §5, §2
as §3, with “inoculation […]” for “inoculation”
as §4, with “detected. […]” for “detected.”
as §6, §7, §8

[4] = tested on: multi-drug resistant clinical isolate E. coli G69; assay: Novobiocin potentiation assay (MIC of novobiocin with fixed concentration of peptide or PAβN); parameters: key to MIC of Novobiocin, E. coli G69, +32 μg/mL added peptide / MIC of Novobiocin, E. coli G69, +128 μg/mL added peptide: Non potentiating (NP) indicated no reduction in the MIC of novobiocin was observed; settings: for MIC of Novobiocin, E. coli G69, +128 μg/mL added peptide / MIC of Novobiocin, E. coli G69, +32 μg/mL added peptide: Iso-Sensitest Broth, 5 × 10^5 CFU/mL, visual read-out; for MIC of Novobiocin, E. coli G69, +128 μg/mL added peptide: fixed 128 μg/mL peptide; for potentiation of novobiocin against multi-drug resistant E. coli, result in words: E. coli G69, added peptide; for MIC of Novobiocin, E. coli G69, +32 μg/mL added peptide: fixed 32 μg/mL peptide
Experimental: as §1, §2, §3, §4

[5] = fixed 32 μg/mL PAβN, broth microdilution, duplicate
[6] = fixed 64 μg/mL PAβN, broth microdilution, duplicate

Compound	MIC of Novobiocin, E. coli NCTC 10418, +128 μg/mL added peptide ([1]; broth microdilution, duplicate)	MIC of Novobiocin, E. coli G69, +128 μg/mL added peptide ([4]; broth microdilution, duplicate)	MIC of Novobiocin, E. coli G69, +32 μg/mL added peptide ([4]; broth microdilution, duplicate)	MIC of norfloxacin, E. coli 10418, +128 μg/mL of peptide [2]	MIC of norfloxacin, E. coli G69, +128 μg/mL of peptide [3]	other results
NC(N)=NCCC[C@H](NC(=O)[C@@H](N)Cc1ccccc1)C(=O)Nc1ccc2ccccc2c1 [PAβN, phenylalanine-arginine-β-naphthylamide, reference compound] (H-Phe-Arg-βNA)	–	–	–	–	–	reduction in MIC for novobiocin, susceptible E. coli 10418 ([1]; PAβN concentration of 72 μM (32 μg/mL)): twofold; MIC of Novobiocin, E. coli NCTC 10418, +32 μg/mL PAβN [1, 5]: 16 µg/mL; MIC of Novobiocin, E. coli NCTC 10418, +64 μg/mL PAβN [1, 6]: 8 µg/mL; MIC of norfloxacin, E. coli 10418, +64 μg/mL PAβN ([2]; fixed 64 μg/mL PAβN): 0.125 µg/mL; MIC of norfloxacin, E. coli G69, +64 μg/mL PAβN ([3]; fixed 64 μg/mL PAβN): > 128 µg/mL; MIC of Novobiocin, E. coli G69, +32 μg/mL PAβN [4, 5]: 8 µg/mL; MIC of Novobiocin, E. coli G69, +64 μg/mL PAβN [4, 6]: 2 µg/mL; concentration at which synergism with novobiocin is provided against multi-drug resistant E. coli G69 ([4]; molar equivalent of the 32 μg/mL fixed concentration): 72 µM
FKFK [Compound 17, short cationic peptide FKFK, amidated at the C-terminus]	NP	NP	–	–	–	–
FKFKF [Compound 19, short cationic peptide FKFKF, amidated at the C-terminus]	4 µg/mL	8 µg/mL	32 µg/mL	–	–	MIC of Novobiocin, E. coli NCTC 10418, +32 μg/mL added peptide ([1]; broth microdilution, duplicate): 128 µg/mL; potentiation of novobiocin against multi-drug resistant E. coli, result in words [4]: restore the susceptibility
FKPLPPH [Compound 25, proline-rich peptide FKPLPPH, C-terminal amide; commercial sample from ThermoFisher]	8 µg/mL	NP	–	0.062 µg/mL	> 128 µg/mL	potentiation of the MIC of novobiocin, result in words [1]: Potentiation was restored but again only against susceptible strain
FRFR [Compound 8, short cationic peptide FRFR, amidated at the C-terminus]	NP	8 µg/mL	NP	–	–	–
FRFRF [Compound 10, short cationic peptide FRFRF, amidated at the C-terminus]	2 µg/mL	4 µg/mL	8 µg/mL	–	–	potentiation of novobiocin against multi-drug resistant E. coli, result in words [4]: restore the susceptibility
FRRQRF [Compound 21, short cationic peptide FRRQRF, C-terminal amide; commercial sample from ThermoFisher]	NP ^†	NP	–	0.062 µg/mL	> 128 µg/mL	–
KFKF [Compound 18, short cationic peptide KFKF, amidated at the C-terminus]	NP	NP	–	–	–	–
KWKW [Compound 14, short cationic peptide KWKW, amidated at the C-terminus]	NP	NP	–	–	–	–
RFRF [Compound 9, short cationic peptide RFRF, amidated at the C-terminus]	2 µg/mL	8 µg/mL	128 µg/mL	0.062 µg/mL	> 128 µg/mL	MIC of Novobiocin, E. coli NCTC 10418, +32 μg/mL added peptide ([1]; broth microdilution, duplicate): NP
RPPWRPPW [Compound 26]	8 µg/mL	NP	–	–	> 128 µg/mL	MIC of Novobiocin, E. coli NCTC 10418, +32 μg/mL added peptide ([1]; broth microdilution, duplicate): 64 µg/mL; potentiation of novobiocin against multi-drug resistant E. coli, result in words [4]: no potentiation was seen against the multidrug resistant strain
RPRPRPL [Compound 22, proline-rich cationic peptide RPRPRPL, amidated at the C-terminus]	NP	NP	–	0.062 µg/mL	> 128 µg/mL	potentiation of the MIC of novobiocin, result in words [1]: did not show any significant potentiation
RPRRPRLPW-NH2 [Compound 27]	0.125 µg/mL	16 µg/mL	16 µg/mL	0.062 µg/mL	> 128 µg/mL	fold reduction in the MIC of novobiocin against the susceptible strain ([1]; E. coli 10418, added peptide): 256 fold; MIC of Novobiocin, E. coli NCTC 10418, +32 μg/mL added peptide ([1]; broth microdilution, duplicate): 8 µg/mL; potentiation of novobiocin against multi-drug resistant E. coli, result in words [4]: restore the susceptibility
RPWPPR [Compound 23, proline-rich cationic peptide RPWPPR, amidated at the C-terminus]	4 µg/mL	NP	–	0.062 µg/mL	> 128 µg/mL	potentiation of the MIC of novobiocin, result in words [1]: shows potentiation, but only against the susceptible strain
RRFRF [Compound 11, short cationic peptide RRFRF, amidated at the C-terminus]	64 µg/mL	64 µg/mL	–	–	–	–
RWRW [Compound 5, short cationic peptide RWRW, amidated at the C-terminus]	2 µg/mL	16 µg/mL	64 µg/mL	0.062 µg/mL	> 128 µg/mL	MIC of Novobiocin, E. coli NCTC 10418, +32 μg/mL added peptide ([1]; broth microdilution, duplicate): 64 µg/mL
WKWK [Compound 13, short cationic peptide WKWK, amidated at the C-terminus]	NP	NP	–	–	–	–

From PMC7730182, “Synthesis and in Silico Modelling of the Potential Dual Mechanistic Activity of Small Cationic Peptides Potentiating the Antibiotic Novobiocin against Susceptible and Multi-Drug Resistant Escherichia coli” (International Journal of Molecular Sciences, 2020)
